Data as given in ChEMBL document CHEMBL3745716, “Synthesis, pharmacological assessment, molecular modeling and in silico studies of fused tricyclic coumarin derivatives as a new family of multifunctional anti-Alzheimer agents” (Eur J Med Chem, 2016).
Activity calls are given as the source filed them. The calls are words filed in the database; no cut-off is given here.

Key:
SK-N-SH [1] = test: Neuroprotective activity against H2O2-induced cell death in human SK-N-SH cells assessed as cell viability preincubated for 3 hrs followed by H202 challenge after 24 hrs by MTT assay; assay type: functional, cell-based
SK-N-SH [2] = test: Neurotoxicity against human SK-N-SH cells assessed as cell viability at 40 uM after 24 hrs by MTT assay; assay type: toxicity, cell-based
SK-N-SH [3] = test: Neurotoxicity against human SK-N-SH cells assessed as cell viability at 80 uM after 24 hrs by MTT assay; assay type: toxicity, cell-based
SK-N-SH [4] = test: Neurotoxicity against human SK-N-SH cells assessed as cell viability at 120 uM after 24 hrs by MTT assay; assay type: toxicity, cell-based
SK-N-SH [5] = test: Neurotoxicity against human SK-N-SH cells assessed as cell viability at 160 uM after 24 hrs by MTT assay; assay type: toxicity, cell-based
SK-N-SH [6] = test: Neurotoxicity against human SK-N-SH cells assessed as cell viability at 200 uM after 24 hrs by MTT assay; assay type: toxicity, cell-based
[7] = target: Acetylcholinesterase (Electrophorus electricus) (UniProt O42275); test: Potency index, ratio of galantamine IC50 to compound IC50 for electric eel AChE
Acetylcholinesterase (Electrophorus electricus), sequence (O42275 24-633 limits assumed): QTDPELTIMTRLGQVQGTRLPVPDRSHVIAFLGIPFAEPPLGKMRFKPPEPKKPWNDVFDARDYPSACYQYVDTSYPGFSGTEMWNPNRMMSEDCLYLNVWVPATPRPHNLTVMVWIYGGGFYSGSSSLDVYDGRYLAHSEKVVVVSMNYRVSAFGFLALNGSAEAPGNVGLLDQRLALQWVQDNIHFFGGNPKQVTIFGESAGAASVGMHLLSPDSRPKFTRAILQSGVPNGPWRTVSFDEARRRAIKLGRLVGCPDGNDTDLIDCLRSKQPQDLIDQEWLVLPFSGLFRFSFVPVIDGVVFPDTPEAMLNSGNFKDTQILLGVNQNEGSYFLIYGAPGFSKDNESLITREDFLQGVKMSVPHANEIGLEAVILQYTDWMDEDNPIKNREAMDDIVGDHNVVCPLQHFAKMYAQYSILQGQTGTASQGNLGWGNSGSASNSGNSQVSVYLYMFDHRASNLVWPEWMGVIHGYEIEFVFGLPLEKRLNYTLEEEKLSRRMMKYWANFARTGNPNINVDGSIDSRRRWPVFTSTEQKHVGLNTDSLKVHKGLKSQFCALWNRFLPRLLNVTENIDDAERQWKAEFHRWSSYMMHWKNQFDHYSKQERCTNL

[8] = Potency index, ratio of trolox IC50 to compound IC50 for ABTS radical scavenging activity
Acetylcholinesterase [9] = target: T1, Acetylcholinesterase (Electrophorus electricus, UniProt O42275)
T1 sequence (O42275 whole entry): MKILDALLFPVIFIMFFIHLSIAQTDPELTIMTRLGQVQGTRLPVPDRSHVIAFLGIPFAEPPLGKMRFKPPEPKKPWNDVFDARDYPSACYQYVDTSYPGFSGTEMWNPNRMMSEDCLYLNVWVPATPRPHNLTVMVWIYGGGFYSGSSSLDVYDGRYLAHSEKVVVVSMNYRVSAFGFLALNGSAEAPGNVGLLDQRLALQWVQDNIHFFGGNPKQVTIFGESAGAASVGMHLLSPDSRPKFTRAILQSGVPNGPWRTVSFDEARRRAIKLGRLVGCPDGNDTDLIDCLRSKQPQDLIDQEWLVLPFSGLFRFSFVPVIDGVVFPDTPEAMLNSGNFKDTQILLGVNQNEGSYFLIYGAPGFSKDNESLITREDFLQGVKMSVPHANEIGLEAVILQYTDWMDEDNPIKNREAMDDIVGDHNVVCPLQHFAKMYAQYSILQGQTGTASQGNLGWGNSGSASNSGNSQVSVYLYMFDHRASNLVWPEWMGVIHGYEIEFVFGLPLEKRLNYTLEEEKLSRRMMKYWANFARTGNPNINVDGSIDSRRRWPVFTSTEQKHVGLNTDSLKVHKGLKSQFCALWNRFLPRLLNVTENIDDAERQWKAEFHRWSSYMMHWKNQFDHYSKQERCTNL
Description: Inhibition of electric eel AChE using acetylthiocholine iodide as substrate preincubated for 5 mins followed by substrate addition measured after 5 mins by Ellman's method

Cholinesterase = Cholinesterase (Equus caballus, UniProt P81908)
Cholinesterase, sequence (P81908 whole entry): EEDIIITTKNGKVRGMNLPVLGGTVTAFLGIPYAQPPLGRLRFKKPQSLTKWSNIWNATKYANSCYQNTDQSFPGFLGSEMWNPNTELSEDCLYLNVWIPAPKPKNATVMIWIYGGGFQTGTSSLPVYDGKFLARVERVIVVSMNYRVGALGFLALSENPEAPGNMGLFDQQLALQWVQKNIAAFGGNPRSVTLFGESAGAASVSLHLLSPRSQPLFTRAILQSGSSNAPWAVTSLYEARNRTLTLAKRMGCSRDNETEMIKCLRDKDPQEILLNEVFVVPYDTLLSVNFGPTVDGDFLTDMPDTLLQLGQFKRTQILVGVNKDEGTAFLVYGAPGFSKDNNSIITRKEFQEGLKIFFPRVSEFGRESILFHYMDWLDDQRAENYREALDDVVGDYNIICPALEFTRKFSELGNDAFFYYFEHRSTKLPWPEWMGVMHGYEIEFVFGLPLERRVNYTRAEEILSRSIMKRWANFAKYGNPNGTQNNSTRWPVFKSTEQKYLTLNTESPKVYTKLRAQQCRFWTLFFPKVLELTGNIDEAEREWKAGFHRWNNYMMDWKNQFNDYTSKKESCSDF
Description: Inhibition of horse serum butyrylcholinesterase using butyrylthiocholine iodide as substrate preincubated for 5 mins followed by substrate addition measured after 5 mins by Ellman's method

Acetylcholinesterase [10] = target: T1, Acetylcholinesterase; test: Mixed-type inhibition of electric eel AChE using acetylthiocholine iodide as substrate assessed as enzyme-substrate complex preincubated for 5 mins followed by substrate addition measured over 6 mins by Lineweaver Burk plot analysis
Acetylcholinesterase [11] = target: T1, Acetylcholinesterase; test: Mixed-type inhibition of electric eel AChE using acetylthiocholine iodide as substrate assessed as free enzyme preincubated for 5 mins followed by substrate addition measured over 6 mins by Lineweaver Burk plot analysis
Mus musculus = test: In vivo inhibition of AChE in ip dosed BALB/c ByJ mouse brain assessed as hydrolysis of acetylthiocholine iodide after 48 hrs by Ellman's method; assay type: functional, organism-based

SMILES | Activity (SK-N-SH [1]) | Activity (SK-N-SH [2]) | Activity (SK-N-SH [3]) | Activity (SK-N-SH [4]) | Activity (SK-N-SH [5]) | Activity (SK-N-SH [6]) | Ratio IC50 [7] | Ratio IC50 [8] | IC50 (Acetylcholinesterase [9]) [µM] | IC50 (Cholinesterase) [µM] | IC50 [µM] | Ki (Acetylcholinesterase [10]) [µM] | Ki (Acetylcholinesterase [11]) [µM] | inhibition (Mus musculus)
Cc1cc(=O)oc2c1ccc1oc(=N)c(C(=O)NCc3ccc(C(C)(C)C)cc3)cc12 | Dose-dependent effect | Toxic | Toxic | Toxic | Toxic | Toxic | 2 | 1.7 | 0.01 | 57.9 | 13.4 | – | – | –
COc1ccccc1OCCNC(=O)c1cc2c(ccc3c(C)cc(=O)oc32)oc1=N | – | – | – | – | – | – | – | – | 2.6 | 24.8 | 13 | – | – | –
Cc1cc(=O)oc2c1ccc1oc(=N)c(C(=O)NCc3cccc(Br)c3)cc12 | Dose-dependent effect | Toxic | Toxic | Toxic | Toxic | Toxic | 2 | 1.7 | 0.003 | > 100 | 7.98 | 0.0193 | 0.0103 | Active
CCNC(=O)c1cc2c(ccc3c(C)cc(=O)oc32)oc1=N | – | – | – | – | – | – | 2 | – | 0.294 | 11.3 | > 50 | – | – | –
Cc1cc(=O)oc2c1ccc1oc(=N)c(C(=O)NCc3cccc(Cl)c3)cc12 | Dose-dependent effect | Non-toxic | Non-toxic | Non-toxic | Non-toxic | Non-toxic | 2 | 1.7 | 0.019 | > 100 | 10.3 | – | – | –
Cc1cc(=O)oc2c1ccc1oc(=N)c(C(=O)NCc3ccccc3Br)cc12 | Dose-dependent effect | Non-toxic | Non-toxic | Non-toxic | Non-toxic | Non-toxic | 2 | 1.7 | 0.016 | > 100 | 11.9 | – | – | –
Cc1c(C)c2c(c(C)c1O)CCC(C)(C(=O)O)O2 (stereo unspecified) [TROLOX] | – | – | – | – | – | – | – | – | – | – | 27.4 | – | – | –
CCCCCCCCCCCCNC(=O)c1cc2c(ccc3c(C)cc(=O)oc32)oc1=N | – | – | – | – | – | – | 2 | – | 0.022 | > 100 | > 50 | – | – | –
Cc1cc(=O)oc2c1ccc1oc(=N)c(C(=O)NC3CCCCC3)cc12 | – | – | – | – | – | – | 2 | – | 0.027 | 42 | > 50 | – | – | –
Cc1cc(=O)oc2c1ccc1oc(=N)c(C(=O)NC(c3ccccc3)c3ccccc3)cc12 | – | – | – | – | – | – | 2 | – | 0.09 | – | > 50 | – | – | –
COc1ccc(CNC(=O)c2cc3c(ccc4c(C)cc(=O)oc43)oc2=N)c(OC)c1 | – | – | – | – | – | – | 2 | – | 0.357 | > 100 | > 50 | – | – | –
Cc1cc(=O)oc2c1ccc1oc(=N)c(C(=O)Nc3ccccc3[N+](=O)[O-])cc12 | – | – | – | – | – | – | 2 | – | 0.226 | > 100 | > 50 | – | – | –
COc1ccc(C(C)NC(=O)c2cc3c(ccc4c(C)cc(=O)oc43)oc2=N)cc1 (stereo unspecified) | – | – | – | – | – | – | – | 1.7 | 1.9 | – | 9.04 | – | – | –
Cc1cc(=O)oc2c1ccc1oc(=N)c(C(=O)NC(C)c3ccccc3)cc12 (stereo unspecified) | – | – | – | – | – | – | 2 | 1.7 | 0.247 | 35.8 | 14.1 | – | – | –
Cc1cc(=O)oc2c1ccc1oc(=N)c(C(=O)NC3CC3)cc12 | – | – | – | – | – | – | – | – | 0.91 | 38.9 | > 50 | – | – | –
Cc1cc(=O)oc2c1ccc1oc(=N)c(C(=O)N3CCCC3)cc12 | – | – | – | – | – | – | 2 | – | 0.984 | 73.1 | > 50 | – | – | –
Cc1cc(=O)oc2c1ccc1oc(=N)c(C(=O)N3CCOCC3)cc12 | – | – | – | – | – | – | 2 | 1.7 | 0.115 | – | 11.3 | – | – | –
Cc1cc(=O)oc2c1ccc1oc(=N)c(C(=O)NCc3ccccc3)cc12 | – | – | – | – | – | – | 2 | – | 2.13 | > 100 | > 50 | – | – | –
Cc1cc(=O)oc2c1ccc1oc(=N)c(C(=O)NCc3ccccc3Cl)cc12 | Dose-dependent effect | Non-toxic | Non-toxic | Non-toxic | Non-toxic | Non-toxic | 2 | 1.7 | 0.012 | > 100 | 16 | – | – | –
CNC(=O)c1cc2c(ccc3c(C)cc(=O)oc32)oc1=N | – | – | – | – | – | – | – | – | 1.4 | > 100 | 34.2 | – | – | –
